Data: patent US20250213701A1, “MEDICAMENT FOR TREATING HUMAN TUMOR BASED ON ERF3A-TARGETING PROTEOLYSIS MECHANISM” (SUZHOU DEGEN BIO-MEDICAL CO., LTD., priority 2022, published 2025)

Tests used:
Format in all cases: cell-based, human
VCaP cells = assay: Anti-proliferative toxicity against prostate cancer cell line Vcap (CCK8); conditions: 3 days; for IC50: CCK8
Experimental: (§1) Example 82: Detection of Anti-Proliferative Toxicity Against Prostate Cancer Cell Lines Vcap, 22Rv1, and PC-3
(§2) Vcap cells (purchased from the Cell Bank of the Chinese Academy of Sciences, Cat. No. SCSP-5034) were subcultured in a culture medium (DMEM medium+1% penicillin-streptomycin dual-antibiotic solution+10% fetal bovine serum) in an incubator at 5% carbon dioxide and 37° C. 22Rv1 cells (purchased from the Cell Bank of the Chinese Academy of Sciences, Cat. No. TCHu100) were subcultured in a culture medium (RPMI-1640 medium+1% penicillin-streptomycin dual-antibiotic solution+10% fetal bovine serum) in an incubator at 5% carbon dioxide and 37° C.
VCap cells were seeded at 20000 cells/well (90 μL) on a 96-well plate and cultured for 72 h. The original medium was removed, and a new medium of 90 μL was added.
(§3) 10 mM compound stock solutions were prepared in DMSO.
For VCap cells, the compound stock solution was diluted with DMSO to give DMSO solutions 1-10 at concentrations of 0 μM, 80 μM, 16 μM, 3.2 μM, 1.5 μM, 0.5 μM, 0.15 μM, 0.05 μM, 0.025 μM, and 0.0005 μM.
For Vcap cells, 2 μL of each of the above solutions 1-10 was added to 98 μL of Vcap medium to give mixed solutions 20-29 of the compound and the medium.
For Vcap cells, 10 μL of each of the above solutions 20-29 was added to the above cell seed solution to give a total volume of 100 μL (90 μL+10 μL), where the concentrations of the compound in wells were 0 μM, 0.16 μM, 0.032 μM, 0.006 μM, 0.003 μM, 0.001 μM, 0.0003 μM, 0.0001 μM, 0.00005 μM, and 0.00001 μM. All concentrations were in triplicate.
(§4) After the above-treated cells were cultured for 3 days, 10 μL of the CCK8 solution (DOJINDO, Cat. No. PF725) was added to each well. The plate was incubated in an incubator at 37° C. for 1-4 h and then detected on a microplate reader for the reading at 450 nm.

22Rv1 cells = assay: Anti-proliferative toxicity against prostate cancer cell line 22Rv1 (CCK8); conditions: 3 days; for IC50: CCK8
Experimental: as §1, §2
22Rv1 cells were seeded at 5000 cells/well (90 μL) on a 96-well plate and cultured for 48 h.
as §3
(§5) For 22Rv1 cells and PC-3 cells, the compound stock solution was diluted with DMSO to give DMSO solutions 11-19 at concentrations of 0 μM, 500 μM, 100 μM, 20 μM, 4 μM, 0.8 μM, 0.16 μM, 0.032 μM, 0.0064 μM.
For 22Rv1 cells, 2 μL of each of the above solutions 11-19 was added to 98 μL of 22Rv1 medium to give mixed solutions 30-38 of the compound and the medium.
(§6) For 22Rv1 and PC-3 cells, 10 μL of each of the above solutions 30-38 or 39-47 was added to the above cell seed solution to give a total volume of 100 μL (90 μL+10 μL), where the concentrations of the compound in wells were 0 μM, 1.0 μM, 0.2 μM, 0.04 μM, 0.008 μM, 0.0016 μM, 0.00032 μM, 0.00006 μM, and 0.00001 μM. All concentrations were in triplicate.
as §4

PC-3 cells = assay: Anti-proliferative toxicity against prostate cancer cell line PC-3 (CCK8); conditions: 3 days
Experimental: as §1
PC-3 cells (purchased from the Cell Bank of the Chinese Academy of Sciences, Cat. No. SCSP-532) were subcultured in a culture medium (F12K medium+1% penicillin-streptomycin dual-antibiotic solution+10% fetal bovine serum) in an incubator at 5% carbon dioxide and 37° C.
PC-3 cells were seeded at 4000 cells/well (90 μL) on a 96-well plate and cultured for 24 h.
as §3, §5
For PC-3 cells, 2 μL of each of the above solutions 11-19 was added to 98 μL of PC-3 medium to give mixed solutions 39-47 of the compound and the medium.
as §6, §4

Molecule: C[C@]12C=CC(=O)N[C@@H]1CC[C@@H]1[C@@H]2CC[C@]2(C)[C@@H](C(=O)Nc3cccc(NCCCNc4cccc5c4C(=O)N(C4CCC(=O)NC4=O)C5=O)c3)CC[C@@H]12 (stereo partly drawn) [C50, N-(3-((3-((4-(2-(3-(2,6-dioxopiperidine))-isoindole-1,3-dione))amino)propyl)amino)phenyl)-3-oxo-4-aza-5α-androst-1-ene-17β-carboxamide]
- Anti-proliferative toxicity data in VCaP cells (VCaP cells; 0.00005 μM): 1.2%
- Anti-proliferative toxicity data in VCaP cells (VCaP cells; 0.00010 μM): 22.8%
- Anti-proliferative toxicity data in VCaP cells (VCaP cells; 0.00030 μM): 72.3%
- Anti-proliferative toxicity data in VCaP cells (VCaP cells; 0.00100 μM): 86.6%
- Anti-proliferative toxicity data in VCaP cells (VCaP cells; 0.00300 μM): 90.5%
- Anti-proliferative toxicity data in VCaP cells (VCaP cells; 0.00600 μM): 90.7%
- Anti-proliferative toxicity data in VCaP cells (VCaP cells; 0.03200 μM): 91.5%
- Anti-proliferative toxicity data in VCaP cells (VCaP cells; 0.16000 μM): 91.7%
- IC50 (VCaP cells; Homo sapiens, 72 h): 0.1 to 10 nM
- Anti-proliferative toxicity data in 22Rv1 cells (22Rv1 cells; 0.00006 μM): 6.6%
- Anti-proliferative toxicity data in 22Rv1 cells (22Rv1 cells; 0.00032 μM): 45.2%
- Anti-proliferative toxicity data in 22Rv1 cells (22Rv1 cells; 0.00160 μM): 78.4%
- Anti-proliferative toxicity data in 22Rv1 cells (22Rv1 cells; 0.00800 μM): 80.7%
- Anti-proliferative toxicity data in 22Rv1 cells (22Rv1 cells; 0.04000 μM): 75.0%
- Anti-proliferative toxicity data in 22Rv1 cells (22Rv1 cells; 0.20000 μM): 80.6%
- Anti-proliferative toxicity data in 22Rv1 cells (22Rv1 cells; 1.00000 μM): 81.5%
- IC50 (22Rv1 cells; Homo sapiens, 72 h): 0.1 to 10 nM
- IC50 (PC-3 cells; Homo sapiens, 72 h): 10 to 1000 nM

Molecule: C[C@]12C=CC(=O)N[C@@H]1CC[C@@H]1[C@@H]2CC[C@]2(C)[C@@H](C(=O)NCCNc3ccc4c(c3)C(=O)N(C3CCC(=O)NC3=O)C4=O)CC[C@@H]12 (stereo partly drawn) [C2, N-(2-((5-(2-(3-(2,6-dioxopiperidine))-isoindole-1,3-dione))amino)ethyl)-3-oxo-4-aza-5α-androst-1-ene-17β-carboxamide]
- IC50 (VCaP cells; Homo sapiens, 72 h): > 1000 nM
- IC50 (22Rv1 cells; Homo sapiens, 72 h): > 1000 nM
- IC50 (PC-3 cells; Homo sapiens, 72 h): > 1000 nM

Molecule: C[C@]12C=CC(=O)N[C@@H]1CC[C@@H]1[C@@H]2CC[C@]2(C)[C@@H](C(=O)Nc3ccc(OCCCCCCCNc4ccc5c(c4)C(=O)N(C4CCC(=O)NC4=O)C5=O)cc3)CC[C@@H]12 (stereo partly drawn) [C24, N-(4-((7-((5-(2-(3-(2,6-dioxopiperidine))-isoindole-1,3-dione))amino)heptyl)oxy)phenyl)-3-oxo-4-aza-5α-androst-1-ene-17β-carboxamide]
- IC50 (VCaP cells; Homo sapiens, 72 h): > 1000 nM
- IC50 (22Rv1 cells; Homo sapiens, 72 h): > 1000 nM
- IC50 (PC-3 cells; Homo sapiens, 72 h): > 1000 nM

Molecule: CC1[C@H](Nc2cccc(NC(=O)[C@H]3CC[C@H]4[C@@H]5CC[C@H]6NC(=O)C=C[C@]6(C)[C@H]5CC[C@]34C)c2)CCC[C@H]1Nc1cccc2c1C(=O)N(C1CCC(=O)NC1=O)C2=O (stereo partly drawn) [C69, N-(3-(N—(N-(4-(2-(3-(2,6-dioxopiperidine))-isoindole-1,3-dione))-2-methyl-1R,3R-cyclohexanediamine))phenyl)-3-oxo-4-aza-5α-androst-1-ene-17β-carboxamide]
- IC50 (VCaP cells; Homo sapiens, 72 h): 0.1 to 10 nM
- IC50 (22Rv1 cells; Homo sapiens, 72 h): 0.1 to 10 nM
- IC50 (PC-3 cells; Homo sapiens, 72 h): 10 to 1000 nM

Molecule: C[C@]12C=CC(=O)N[C@@H]1CC[C@@H]1[C@@H]2CC[C@]2(C)[C@@H](C(=O)NCCCCNc3ccc4c(c3)C(=O)N(C3CCC(=O)NC3=O)C4=O)CC[C@@H]12 (stereo partly drawn) [C6, N-(4-((5-(2-(3-(2,6-dioxopiperidine))-isoindole-1,3-dione))amino)butyl)-3-oxo-4-aza-5α-androst-1-ene-17β-carboxamide]
- IC50 (VCaP cells; Homo sapiens, 72 h): > 1000 nM
- IC50 (22Rv1 cells; Homo sapiens, 72 h): > 1000 nM
- IC50 (PC-3 cells; Homo sapiens, 72 h): > 1000 nM

Molecule: C[C@]12C=CC(=O)N[C@@H]1CC[C@@H]1[C@@H]2CC[C@]2(C)[C@@H](C(=O)Nc3cccc(NC4CCCC(Nc5cccc6c5C(=O)N(C5CCC(=O)NC5=O)C6=O)C4)c3)CC[C@@H]12 (stereo partly drawn) [C58, N-(3-(N—(N-(4-(2-(3-(2,6-dioxopiperidine))-isoindole-1,3-dione))cyclohexanediamine))phenyl)-3-oxo-4-aza-5α-androst-1-ene-17β-carboxamide]
- IC50 (VCaP cells; Homo sapiens, 72 h): 0.1 to 10 nM
- IC50 (22Rv1 cells; Homo sapiens, 72 h): 0.1 to 10 nM
- IC50 (PC-3 cells; Homo sapiens, 72 h): 10 to 1000 nM

Molecule: C[C@]12C=CC(=O)N[C@@H]1CC[C@@H]1[C@@H]2CC[C@]2(C)[C@@H](C(=O)NCCCCCCCNc3cccc4c3C(=O)N(C3CCC(=O)NC3=O)C4=O)CC[C@@H]12 (stereo partly drawn) [C11, N-(7-((4-(2-(3-(2,6-dioxopiperidine))-isoindole-1,3-dione))amino)heptyl)-3-oxo-4-aza-5α-androst-1-ene-17β-carboxamide]
- IC50 (VCaP cells; Homo sapiens, 72 h): > 1000 nM
- IC50 (22Rv1 cells; Homo sapiens, 72 h): > 1000 nM
- IC50 (PC-3 cells; Homo sapiens, 72 h): > 1000 nM

Molecule: C[C@]12C=CC(=O)N[C@@H]1CC[C@@H]1[C@@H]2CC[C@]2(C)[C@@H](C(=O)Nc3ccc(OCCNc4ccc5c(c4)C(=O)N(C4CCC(=O)NC4=O)C5=O)nc3)CC[C@@H]12 (stereo partly drawn) [C47, N-(5-(2-((2-((5-(2-(3-(2,6-dioxopiperidine))-isoindole-1,3-dione))amino)ethyl)oxy)pyridine))-3-oxo-4-aza-5α-androst-1-ene-17β-carboxamide]
- IC50 (VCaP cells; Homo sapiens, 72 h): 10 to 1000 nM
- IC50 (22Rv1 cells; Homo sapiens, 72 h): 10 to 1000 nM
- IC50 (PC-3 cells; Homo sapiens, 72 h): > 1000 nM

Molecule: N-(3-(N—(N-(4-(2-(3-(2,6-dioxopiperidine))-isoindole-1,3-dione))-6S-methyl-1S,3R-cyclohexanediamine))phenyl)-3-oxo-4-aza-5α-androst-1-ene-17β-carboxamide and N-(3-(N—(N-(4-(2-(3-(2,6-dioxopiperidine))-isoindole-1,3-dione))-4R-methyl-1R,3S-cyclohexanediamine))phenyl)-3-oxo-4-aza-5α-androst-1-ene-17β-carboxamide [C70]
- IC50 (VCaP cells): 0.1 to 10 nM
- IC50 (22Rv1 cells): 0.1 to 10 nM
- IC50 (PC-3 cells): 10 to 1000 nM

Molecule: C[C@]12C=CC(=O)N[C@@H]1CC[C@@H]1[C@@H]2CC[C@]2(C)[C@@H](C(=O)Nc3cccc(OCCCNc4cccc5c4CN(C4CCC(=O)NC4=O)C5=O)c3)CC[C@@H]12 (stereo partly drawn) [C41, N-(3-((3-((4-(2-(3-(2,6-dioxopiperidine))-1-oxo-2,3-dihydro-1H-isoindol))amino)propyl)oxy)phenyl)-3-oxo-4-aza-5α-androst-1-ene-17β-carboxamide]
- IC50 (VCaP cells; Homo sapiens, 72 h): 0.1 to 10 nM
- IC50 (22Rv1 cells; Homo sapiens, 72 h): 0.1 to 10 nM
- IC50 (PC-3 cells; Homo sapiens, 72 h): > 1000 nM

Molecule: C[C@]12CCC(=O)N[C@@H]1CC[C@@H]1[C@@H]2CC[C@]2(C)[C@@H](C(=O)Nc3cccc(N[C@@H]4CCC[C@@H](Nc5cccc6c5C(=O)N(C5CCC(=O)NC5=O)C6=O)C4)c3)CC[C@@H]12 (stereo partly drawn) [C81, N-(3-(N—(N-(4-(2-(3-(2,6-dioxopiperidine))-isoindole-1,3-dione))-1R,3R-cyclohexanediamine))phenyl)-3-oxo-4-aza-5α-androstane-17β-carboxamide]
- IC50 (VCaP cells): 0.1 to 10 nM
- IC50 (22Rv1 cells): 0.1 to 10 nM
- IC50 (PC-3 cells): 10 to 1000 nM

Molecule: C[C@]12C=CC(=O)N[C@@H]1CC[C@@H]1[C@@H]2CC[C@]2(C)[C@@H](C(=O)Nc3cc(Cl)cc(OCCCNc4cccc5c4C(=O)N(C4CCC(=O)NC4=O)C5=O)c3)CC[C@@H]12 (stereo partly drawn) [C55, N-(3-((3-((4-(2-(3-(2,6-dioxopiperidine))-isoindole-1,3-dione))amino)propyl)oxy)-5-chloro-phenyl)-3-oxo-4-aza-5α-androst-1-ene-17β-carboxamide]
- IC50 (VCaP cells; Homo sapiens, 72 h): 10 to 1000 nM
- IC50 (22Rv1 cells; Homo sapiens, 72 h): 10 to 1000 nM
- IC50 (PC-3 cells; Homo sapiens, 72 h): > 1000 nM

Molecule: C[C@]12C=CC(=O)N[C@@H]1CC[C@@H]1[C@@H]2CC[C@]2(C)[C@@H](C(=O)Nc3cccc(N[C@@H]4COC[C@@H](Nc5cccc6c5C(=O)N(C5CCC(=O)NC5=O)C6=O)C4)c3)CC[C@@H]12 (stereo partly drawn) [C75, N-(3-(N—(N-(4-(2-(3-(2,6-dioxopiperidine))-isoindole-1,3-dione))-tetrahydropyran-3S,5S-diamine))phenyl)-3-oxo-4-aza-5α-androst-1-ene-17β-carboxamide]
- IC50 (VCaP cells; Homo sapiens, 72 h): 10 to 1000 nM
- IC50 (22Rv1 cells; Homo sapiens, 72 h): 10 to 1000 nM
- IC50 (PC-3 cells; Homo sapiens, 72 h): 10 to 1000 nM
